In data set [1] the test system is Hemozoin. Description: Inhibition of beta-hematin in water/NP40/DMSO solution incubated for 5 to 6hrs by detergent-mediated pyridine-ferrichrome method.
Data set [2] relates to Plasmodium falciparum. Description: Antimalarial activity against CQ-sensitive Plasmodium falciparum NF54 infected in human type O+ erythrocytes assessed as growth inhibition incubated for 48 hrs by LDH assay. The format is functional, organism-based. The note with it: NF54, 48 h.
Data set [3] relates to Ferriprotoporphyrin IX. The data set is described as follows: Binding affinity to Fe(3)PP9 solution assessed as ferriprotoporphyrin 9 complex formation by measuring pink precipitate formation at <=5500 uM.
Data set [4] relates to Ferriprotoporphyrin IX. Description: Binding affinity to Fe(3)PP9 solution assessed as ferriprotoporphyrin 9 complex formation by measuring compound concentration causing pink precipitate formation at <=5500 uM.
The subject of data set [5] is Plasmodium falciparum. Description: Antimalarial activity against CQ-sensitive Plasmodium falciparum D10 infected in human type O+ erythrocytes assessed as growth inhibition incubated for 48 hrs by LDH assay. The format is functional, organism-based. Particulars: D10, 48 h.
Data set [6] in a line: Kinetic solubility of compound at pH 2 after 2 hrs by shake flask assay. The format is physicochemical. The note with it: buffer, read-out: Kinetic_solubility.
Data set [7] can be described thus: Kinetic solubility of compound in at pH 6.5 after 2 hrs by shake flask assay. The format is physicochemical. The note with it: buffer, read-out: Kinetic_solubility.
A short description of data set [8]: Kinetic solubility of compound FaSSIF at pH 6.5 after 2 hrs by shake flask assay. The format is physicochemical. Particulars: read-out: Kinetic_solubility.
Data set [9] can be described thus: Half life in human liver microsomes at 0.1 uM in presence of NADPH by LC-MS/MS analysis. The format is ADME, Microsome.
Data set [10] in a line: Half life in rat liver microsomes at 0.1 uM in presence of NADPH by LC-MS/MS analysis. It counts as ADME, Microsome.
Data set [11] can be described thus: Half life in mouse liver microsomes at 0.1 uM in presence of NADPH by LC-MS/MS analysis. It counts as ADME, Microsome.
Data set [12] can be described thus: Clearance in human liver microsomes assessed per mg of protein at 0.1 uM by LC-MS/MS analysis. The format is ADME, Microsome. The note with it: read-out: CLH.
A short description of data set [13]: Clearance in rat liver microsomes assessed per mg of protein at 0.1 uM by LC-MS/MS analysis. The note with it: read-out: CLH. The format is ADME, Microsome.
A short description of data set [14]: Clearance in mouse liver microsomes assessed per mg of protein at 0.1 uM by LC-MS/MS analysis. The format is ADME, Microsome. The note with it: read-out: CLH.
The next data set has as its system CHO. The data set is described as follows: Cytotoxicity against CHO cells by MTT assay. It counts as cell-based. Particulars: Cricetulus griseus.
The test system of data set [15] is Hemozoin. Description: Inhibition of beta-hematin incubated for 6 hrs by NP40 detergent-mediated assay.
For data set [16], the system named is Plasmodium falciparum. The data set is described as follows: Antimalarial activity against Plasmodium falciparum D6 infected in red blood cells assessed as growth inhibition by SYBR green1 fluorescence-based assay. It counts as functional, organism-based.
For data set [17], the system named is Ferriprotoporphyrin IX.
Description: Binding affinity to Fe(3)PP9 in hematin solution at pH 7.5 by titration-based UV-vis spectrophotometrical analysis
Data set [18] deals with Hemozoin. Description: Inhibition of hemozoin formation in CQ-sensitive Plasmodium falciparum D10 infected in human type O+ erythrocytes assessed as increase in free heme incubated for 32 hrs by cell fractionation assay. The format is cell-based. The note with it: Erythrocyte.
The test system of data set [19] is Hemozoin. The data set is described as follows: Inhibition of hemozoin formation in CQ-sensitive Plasmodium falciparum D10 infected in human type O+ erythrocytes assessed as decrease in hemozoin formation incubated for 32 hrs by cell fractionation assay. It counts as cell-based. Particulars: Erythrocyte.
In data set [20] the test system is Hemozoin. The data set is described as follows: Inhibition of hemozoin formation in Plasmodium falciparum trophozoites infected in human erythrocytes assessed as induction of irregularly scattered and shapeless hemozoin clumps inside swollen digestive vacuole at 0.22 ug/ml incubated for 32 hrs by transmission electron microscopic analysis relative to control. The note with it: Erythrocyte. It counts as cell-based.

A short description of data set [21]: Extraction ratio in human liver microsomes assessed per mg of protein at 0.1 uM by LC-MS/MS analysis. The format is ADME, Microsome. Particulars: read-out: ERH.
The nature of data set [22]: Extraction ratio in rat liver microsomes assessed per mg of protein at 0.1 uM by LC-MS/MS analysis. It counts as ADME, Microsome. Particulars: read-out: ERH.
The nature of data set [23]: Extraction ratio in mouse liver microsomes assessed per mg of protein at 0.1 uM by LC-MS/MS analysis. The format is ADME, Microsome. Particulars: read-out: ERH.
Data set [24] concerns Plasmodium falciparum. The data set is described as follows: Antimalarial activity against CQ-resistant Plasmodium falciparum K1 infected in human type O+ erythrocytes assessed as growth inhibition incubated for 48 hrs by LDH assay. It counts as functional, organism-based. Particulars: K1, 48 h.
The nature of data set [25]: Selectivity index, ratio of IC50 for cytotoxicity against CHO cells to IC50 for CQ-sensitive Plasmodium falciparum NF54 infected in human type O+ erythrocytes. The format is toxicity, cell-based. The note with it: Chinese hamster, read-out: Ratio IC50.

Converted amounts (≈) assume the structure as drawn. The source made the active and inactive calls. The calls are words filed in the database; no cut-off is given here.

Regarding `O=C(Nc1ccncc1)c1cccc(C(=O)Nc2ccncc2)c1`, the IC50 with Hemozoin [1] is 507 µM; in the data set on Plasmodium falciparum [2], 9 µM.
In the case of `O=C(Nc1ccncc1)c1ccc([N+](=O)[O-])cc1[N+](=O)[O-]`, in the data set on Hemozoin [1], the half-inhibitory concentration (IC50) is over 5500 µM. The outcome with Ferriprotoporphyrin IX [3] and in the data set on Ferriprotoporphyrin IX [4] was inactive.
In the case of `O=C(Nc1ccncc1)c1cc(C(=O)Nc2ccncc2)cc([N+](=O)[O-])c1`, the 50% inhibitory concentration (IC50) is 4.3 µM in the data set on Hemozoin [1]; 0.9 µM in the data set with Plasmodium falciparum [5]; 0.7 µM in the data set with Plasmodium falciparum [2]; over 275 µM with CHO; 5.86 µM in the data set on Hemozoin [15]; 0.19 µM with Plasmodium falciparum [16]. The values for the solubility kinetic at 2 h in [6], in data set [7] and in data set [8] were 200 µM (≈ 72.6 µg/mL), under 5 µM and 13 µM (≈ 4.72 µg/mL), respectively. The half-life at 0.1 µM in [9], in data set [10] and in data set [11] was over 2.5 h each time. In addition, the microsomal CLint at 0.1 µM in data set [12], in [13] and in data set [14] was under 11.6 µL/min/mg each time.
For the compound `O=C(Nc1cccnc1)c1cc(C(=O)Nc2cccnc2)cc([N+](=O)[O-])c1`, the IC50 with Hemozoin [1] was found to be 4.7 µM; with Plasmodium falciparum [2], 1.32 µM.
As to `O=C(Nc1ccccc1)c1cc(C(=O)Nc2ccccc2)cc(C(=O)Nc2ccccc2)c1`, the IC50 was 21 µM in the data set with Hemozoin [1], over 42 µM with Plasmodium falciparum [5] and 81 µM with Plasmodium falciparum [2].
As for `O=C(Nc1ccncc1)c1ccc(Cl)cc1`, in the data set on Ferriprotoporphyrin IX [4], the Activity fell in the range of 4500 to 5500 µM.
Regarding `N#Cc1cc(C(=O)Nc2ccccc2)cc(C(=O)Nc2ccccc2)c1`, the IC50 came out at 4.4 µM in the data set with Hemozoin [1] and 5.2 µM in the data set on Plasmodium falciparum [5].
Compound `O=C(Nc1ccncc1)c1ccc([N+](=O)[O-])cc1` showed an IC50 with Hemozoin [1] of over 5500 µM. Further, the result with Ferriprotoporphyrin IX [3] and with Ferriprotoporphyrin IX [4] was inactive.
As to `COc1cc(C(=O)Nc2ccccc2)cc(C(=O)Nc2ccccc2)c1`, the IC50 in the data set on Hemozoin [1] is over 1000 µM; in the data set on Plasmodium falciparum [2] it was 37 µM.
Take `Nc1ccnc2cc(Cl)ccc12`: in the data set with Ferriprotoporphyrin IX [17], the log K was determined as 4.43.
As for `CC(C)(C)c1cc(C(=O)Nc2cccnc2)cc(C(=O)Nc2cccnc2)c1`, the IC50 is 6.8 µM in the data set on Hemozoin [1]; 0.7 µM with Plasmodium falciparum [5]; 0.6 µM in the data set on Plasmodium falciparum [2]; 1.7 µM in the data set with Plasmodium falciparum [24]; 185 µM in the data set with CHO. The inhibition result in the data set with Hemozoin [18] and in the data set with Hemozoin [19] was “Dose-dependent effect” in each case. Further, the result in the data set with Hemozoin [20] was Active. The figures for the solubility kinetic at 2 h in data set [6], in data set [7] and in data set [8] were 197 µM (≈ 73.8 µg/mL), 92.7 µM (≈ 34.7 µg/mL) and 154 µM (≈ 57.5 µg/mL), respectively. Besides, the values for the half-life at 0.1 µM in [9], in data set [10] and in [11] were 2.37 h, 1.55 h and 0.873 h, respectively. The microsomal CLint at 0.1 µM in [12] came to 14.1 µL/min/mg; in [13], 33.5 µL/min/mg; in data set [14], 130 µL/min/mg. Also, the hepatic extraction ratio at 0.1 µM in data set [21] turned out to be 0.4; in [22], 0.4; in data set [23], 0.6. Further, in data set [25], the selectivity ratio amounted to 308.
`O=C(Nc1ccncc1)c1ccc(Cl)c(Cl)c1`: in the data set with Ferriprotoporphyrin IX [4], the Activity was in the range of 700 to 1300 µM.
As for `O=C(Nc1ccncc1)c1cccc(Cl)c1`, the Activity with Ferriprotoporphyrin IX [4] was 1300 to 2300 µM.
With `O=C(Nc1ccccc1)c1cc(C(=O)Nc2ccccc2)cc([N+](=O)[O-])c1`, the IC50 in the data set with Hemozoin [1] was 7 µM; with Plasmodium falciparum [2], 1.4 µM.
Turning to `O=C(Nc1ccccc1)c1cccc(C(=O)Nc2ccccc2)c1`, the results for the IC50 in the data set on Hemozoin [1] and in the data set on Plasmodium falciparum [2] were over 1000 µM and over 314 µM, respectively.
Take `CC(C)(C)c1cc(C(=O)Nc2ccncc2)cc(C(=O)Nc2ccncc2)c1`: the IC50 in the data set with Hemozoin [1] was 13.3 µM; with Plasmodium falciparum [2] it was 1.6 µM.
The compound `C=C[C@H]1CN2CC[C@H]1C[C@@H]2[C@@H](O)c1ccnc2ccc(OC)cc12` registered a log K with Ferriprotoporphyrin IX [17] of 5.26.
As for `Cc1ccc(C(=O)Nc2ccncc2)cc1`, the IC50 in the data set on Hemozoin [1] was over 5500 µM. In addition, the outcome in the data set with Ferriprotoporphyrin IX [3] and in the data set on Ferriprotoporphyrin IX [4] was inactive.

Source of the values: ChEMBL document CHEMBL4428041, “Identification and SAR Evaluation of Hemozoin-Inhibiting Benzamides Active against Plasmodium falciparum” (J Med Chem, 2016).
